Assay results taken from PMC6100724, “Proteome‐wide analysis of phospho‐regulated PDZ domain interactions” (Molecular Systems Biology, 2018).

Legend:
DLG1 PDZ2 = target: T1, DLG1 PDZ2 (Homo sapiens, UniProt Q12959); assay: Phosphomimetic ProP-PD selection with NGS; type: binding; details: mean of selections 1-3, bait DLG1 PDZ2
T1 construct: human DLG1 PDZ2 aa 311–407 in a modified pRSET vector 40; made in house; host or cells: E. coli BL21 Gold (DE3)
Procedure: (§1) Phage selections were carried out for four rounds following a protocol by Huang and Sidhu (Huang & Sidhu, 2011) with minor modifications. Non‐specific binding phage was removed by pre‐selections against immobilized GST throughout the selection. The selections against the (pre‐)phosphorylated wild‐type library were performed in 50 mM HEPES (pH 7.4) and 150 mM NaCl (HBS) following the same procedure after pre‐phosphorylation of the library.
(§2) • Immobilize proteins (15 μg in 100 μl PBS) in a 96‐well MaxiSorp microtiter plate (NUNC) overnight at 4°C. • Start a 2YT culture of E. coli Omnimax supplemented with 100 μg/ml tetracycline to retain the F pilus epitope. • Block the wells with 200 μl 0.5% BSA in PBS for 2 h at 4°C. • Precipitate naïve phage library (10^11 cfu per selection) or amplified phage pool from the previous round of selection by adding one‐fifth the volume of PEG/NaCl. • Incubate on ice for 10 min, and pellet precipitated phage by centrifugation at 5,300 g for 15 min. Resuspend the phage pellet in 100 μl PBS per selection. • Add 100 μl of phage solution to the GST‐coated pre‐selection wells and incubate for 1 h. • Transfer the phage solution to the immobilized target proteins and allow it to bind for 2 h at 8°C. • Wash the plate four times with 200 μl cold wash buffer (PBS, 0.05% Tween‐20). • Elute bound phage by incubation with 100 μl log phase (0.6–0.8 OD600) E. coli Omnimax for 30 min at 37°C with shaking (200 RPM). • Add 10^12 cfu/ml M13K07 helper phage for hyperinfection of the bacteria and incubate as above for 45 min. • Transfer the bacterial culture to 10 ml 2YT supplemented with 50 μg/ml carbenicillin, 25 μg/ml kanamycin, and 300 μM IPTG and incubate overnight at 37°C while shaking. • Perform phage pool ELISA to monitor the progress of the selection as described previously (Huang & Sidhu, 2011).
(§3) The naïve library and the enriched phage pools of the third day of selection were amplified and barcoded by PCR and analyzed by NGS as described elsewhere (McLaughlin & Sidhu, 2013; Ivarsson et al, 2014). The reads were demultiplexed using the barcode sequences and filtered by discarding sequences with a Phred quality score under 30. Sequences were mapped to the original library using Bowtie (Langmead et al, 2009) with two mismatches between reads and library sequence. Nucleotide mutations leading to amino acid substitutions were subsequently removed. Cutoff values of NGS counts were assigned for each pool. PWMs were generated based on the remaining peptides (aligned on the C‐termini) using WebLogo (Crooks et al, 2004).
(§4) However, there was no significant correlation of the actual read counts (selection “strength”) and the initial representation in the library, reflecting the strong selection during phage display (wt+mimetic: P‐value: 0.49, ρ = −0.08, mimetic only: P‐value: 0.069, ρ = −0.2, wt only: P‐value: 0.12, ρ = 0.17). Consequently, the amount of reads for each binder after phage display is not a function of the amount of input reads in the naïve library and no modeling based on the input library frequencies to score the interactions is necessary. To allow for comparison between replicate selections, we used the fraction of NGS reads within a certain set, instead of the absolute number of NGS reads, as the absolute numbers differ between different NGS batches.

Scribble PDZ1 [1] = target: T2, Scribble PDZ1 (Homo sapiens, UniProt Q14160); assay: Phosphomimetic ProP-PD selection with NGS; type: binding; details: bait Scribble PDZ1; mean of selections 1-3
T2 construct: human Scribble PDZ1 aa 719–829 in; made in house; host or cells: E. coli BL21 Gold (DE3)
Procedure: as §1, §2, §3, §4

Scribble PDZ2 = assay: Phosphomimetic ProP-PD selection with NGS; type: binding, human; details: bait Scribble PDZ2
Procedure: as §1, §2, §3, §4

DLG1 PDZ1 = assay: Phosphomimetic ProP-PD selection with NGS; type: binding, human; details: mean of selections 1-3, bait DLG1 PDZ1; for Mean fraction #NGS counts mimetic peptide / total count selection: phosphomimetic peptide; for Mean fraction #NGS counts wt peptide / total counts selection: wild type peptide
Procedure: as §1, §2, §3, §4

Scribble PDZ3 = assay: Phosphomimetic ProP-PD selection with NGS; type: binding, human; details: bait Scribble PDZ3
Procedure: as §1, §2, §3, §4

Scribble PDZ1 [2] = target: T2, Scribble PDZ1; assay: Pre-phosphorylation ProP-PD: wild-type library treated with RPS6KA1 or not, selection with NGS; type: binding; details: for Phosphorylated selection Mean fraction: Pre-phosphorylation with RPS6KA1; for Phosphorylated selection Mean fraction / Unphosphorylated selection Mean fraction: mean of the two selections, bait Scribble PDZ1; for Unphosphorylated selection Mean fraction: Without Kinase
Procedure: For pre‐phosphorylation of the wild‐type ProP‐PD library, we obtained activated RPS6KA1 (Thermo Fisher). The time and amount of kinase required to phosphorylate the ProP‐PD library were tested in a phosphorylation assay.
as §1, §2
• Precipitate the naive wild‐type phage library (as described above, 1.8 × 10^10 cfu phage per selection). • Resuspend the precipitated phage pellets in 100 μl Kinase buffer per selection and add ATP (100 μM final concentration) and RPS6KA1 (500 ng/ml) to the phage solution. In parallel, prepare a negative control where only ATP is added to the phage pool. • Incubate the phosphorylation reaction for 2 h at room temperature. Stop the reaction through PEG/NaCl precipitation (as described above). • Resuspend the phage pool in 100 μl HBS.
During the 4 days of pre‐phosphorylation ProP‐PD selections, the input phage library of each day of selection was subjected to phosphorylation prior to phage selection.
as §3

DLG1 PDZ3 = assay: Phosphomimetic ProP-PD selection with NGS; type: binding, human; details: mean of selections 1-3; bait DLG1 PDZ3
Procedure: as §1, §2, §3, §4

[3] = mean of selections 1 and 2 (selection 3 empty)

T2 sequence (Q14160 719-829): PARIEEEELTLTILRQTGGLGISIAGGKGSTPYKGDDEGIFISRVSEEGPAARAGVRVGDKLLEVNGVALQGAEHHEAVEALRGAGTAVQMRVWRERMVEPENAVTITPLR
T1 sequence (Q12959 311-407): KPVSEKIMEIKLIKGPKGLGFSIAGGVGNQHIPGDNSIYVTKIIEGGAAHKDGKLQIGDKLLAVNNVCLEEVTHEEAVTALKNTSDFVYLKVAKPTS

RSRSIETDV
Mean fraction #NGS counts mimetic peptide / total count selection (DLG1 PDZ2): 0.009109
Mean fraction #NGS counts mimetic peptide / total count selection (Scribble PDZ1 [1]): 0.0006725
Mean fraction #NGS counts mimetic peptide / total count selection (Scribble PDZ2; [3]): 0.06648
Mean fraction #NGS counts mimetic peptide / total count selection (DLG1 PDZ1): 0.001793
Mean fraction #NGS counts mimetic peptide / total count selection (Scribble PDZ3; mean over selections 1-3): 0.001306

RSRSISTDV [FAM163B]
Phosphorylated selection Mean fraction (Scribble PDZ1 [2]): 0
Unphosphorylated selection Mean fraction (Scribble PDZ1 [2]): 2.348e-5

SARLWETSI [ADAM22]
Phosphorylated selection Mean fraction (Scribble PDZ1 [2]): 0.05157
Unphosphorylated selection Mean fraction (Scribble PDZ1 [2]): 0.03077

SIDLWETAL [SLC15A5]
Phosphorylated selection Mean fraction (Scribble PDZ1 [2]): 0.0004582
Unphosphorylated selection Mean fraction (Scribble PDZ1 [2]): 1.656e-5

SRDRKEESI
Mean fraction #NGS counts mimetic peptide / total count selection (DLG1 PDZ2): 0
Mean fraction #NGS counts mimetic peptide / total count selection (Scribble PDZ3; mean over selections 1-3): 2.019e-6
Mean fraction #NGS counts mimetic peptide / total count selection (DLG1 PDZ3): 5.904e-6

SRDRKETSI
Mean fraction #NGS counts wt peptide / total counts selection (DLG1 PDZ2): 0.0004401
Mean fraction #NGS counts wt peptide / total counts selection (Scribble PDZ3; mean over selections 1-3): 0.00255
Mean fraction #NGS counts wt peptide / total counts selection (DLG1 PDZ3): 0.002721

SRDRKETSI [RALBP1]
Phosphorylated selection Mean fraction (Scribble PDZ1 [2]): 0
Unphosphorylated selection Mean fraction (Scribble PDZ1 [2]): 1.381e-5

TALKVMTMV [DACT2]
Phosphorylated selection Mean fraction (Scribble PDZ1 [2]): 2.797e-5
Unphosphorylated selection Mean fraction (Scribble PDZ1 [2]): 9.668e-6

TIKLKTSFF
Mean fraction #NGS counts wt peptide / total counts selection (DLG1 PDZ2; wild type peptide): 4.36e-5
Mean fraction #NGS counts wt peptide / total counts selection (DLG1 PDZ1): 0
Mean fraction #NGS counts wt peptide / total counts selection (Scribble PDZ3; mean over selections 1-3): 4.802e-5
Mean fraction #NGS counts wt peptide / total counts selection (DLG1 PDZ3): 3.092e-5

TKGISITSI [GNRHR2]
Phosphorylated selection Mean fraction (Scribble PDZ1 [2]): 3.213e-5
Unphosphorylated selection Mean fraction (Scribble PDZ1 [2]): 3.175e-5

TMFLRETEL
Mean fraction #NGS counts mimetic peptide / total count selection (DLG1 PDZ2): 0.0007019
Mean fraction #NGS counts mimetic peptide / total count selection (Scribble PDZ1 [1]): 0.8115
Mean fraction #NGS counts mimetic peptide / total count selection (Scribble PDZ2; mean over selections): 0.1922
Mean fraction #NGS counts mimetic peptide / total count selection (DLG1 PDZ1): 0.002709
Mean fraction #NGS counts mimetic peptide / total count selection (Scribble PDZ3; mean over selections 1-3): 0.4954

TMFLRETSL
Mean fraction #NGS counts wt peptide / total counts selection (DLG1 PDZ2): 0.0002151
Mean fraction #NGS counts wt peptide / total counts selection (Scribble PDZ1 [1]): 0.01417
Mean fraction #NGS counts wt peptide / total counts selection (Scribble PDZ2; mean over selections): 0.008166
Mean fraction #NGS counts wt peptide / total counts selection (DLG1 PDZ1): 0.0004495
Mean fraction #NGS counts wt peptide / total counts selection (Scribble PDZ3; mean over selections 1-3): 0.0186

TMFLRETSL [GUCY1A2]
Phosphorylated selection Mean fraction (Scribble PDZ1 [2]): 0.5527
Unphosphorylated selection Mean fraction (Scribble PDZ1 [2]): 0.1808

TMFLRETSL‐coo‐
proportion of NGS counts, pre‐phosphorylated library relative to unphosphorylated library (fold) (Scribble PDZ1 [2]; phage-displayed peptide, library treated with RPS6KA1, selection against Scribble PDZ1, n = 2): 3 ×

TNSSSYEHI
Mean fraction #NGS counts mimetic peptide / total count selection (DLG1 PDZ3): 0

TNSSSYSHI
Mean fraction #NGS counts wt peptide / total counts selection (DLG1 PDZ3): 0.001855

VVHTPETEV
Mean fraction #NGS counts mimetic peptide / total count selection (DLG1 PDZ2): 5.021e-5
Mean fraction #NGS counts mimetic peptide / total count selection (Scribble PDZ2; mean over selections): 0.0009495
Mean fraction #NGS counts mimetic peptide / total count selection (DLG1 PDZ1): 0.0004495
Mean fraction #NGS counts mimetic peptide / total count selection (Scribble PDZ3; mean of selections 1-3, phosphomimetic peptide): 1.817e-5

VWLRKETRV [CYSLTR2]
Phosphorylated selection Mean fraction (Scribble PDZ1 [2]): 7.3245e-6
Unphosphorylated selection Mean fraction (Scribble PDZ1 [2]): 0

YEPSMEMSV
Mean fraction #NGS counts mimetic peptide / total count selection (DLG1 PDZ3): 0.001067

YPGSPDSWV
Mean fraction #NGS counts wt peptide / total counts selection (DLG1 PDZ2): 0.0005284
Mean fraction #NGS counts wt peptide / total counts selection (Scribble PDZ2; [3]): 0.2284
Mean fraction #NGS counts wt peptide / total counts selection (DLG1 PDZ1): 3.476e-5

YSPSMTMSV
Mean fraction #NGS counts wt peptide / total counts selection (DLG1 PDZ3): 7.133e-5
